The values that follow are results of earlier work, collected in US10894017B1 (XSPRAY PHARMA AB, priority 2019, dated 2021).

The conditions of series [1]: clinical bio-equivalence studies.
For series [2] the following is noted: within and between patients.
The conditions of series [3]: high permeability and low solubility.

For `Cc1nc(Nc2ncc(C(=O)Nc3c(C)cccc3Cl)s2)cc(N2CCN(CCO)CC2)n1` [anhydrate form N-6], the “AUC compared to Sprycel” value in series [1] is “higher AUC”.

Consider `CC(O)CO.Cc1nc(Nc2ncc(C(=O)Nc3c(C)cccc3Cl)s2)cc(N2CCN(CCO)CC2)n1` [1,2-propanediol solvate, dasatinib 1,2-propanediol solvate], for which the “AUC compared to Sprycel” value in series [1] was “higher AUC”.

Take `Cc1nc(Nc2ncc(C(=O)Nc3c(C)cccc3Cl)s2)cc(N2CCN(CCO)CC2)n1` [dasatinib]: in series [2], the “coefficient of variation of AUC” value is listed as “up to 100%” and the “coefficient of variation of Cmax” value is listed as “up to 100%”.

Turning to `Cc1nc(Nc2ncc(C(=O)Nc3c(C)cccc3Cl)s2)cc(N2CCN(CCO)CC2)n1` [Dasatinib monohydrate], the BCS classification result in series [3] was “BCS II”.
